Results published in PMC8497791 (Frontiers in Pharmacology, 2021).
Blank lines part the entries; values can stand above or below the compound they belong to.

Key:
[1] = Mouse pharmacokinetic study, plasma and brain by LC-MS
[2] = system: EGFR 19del mutant lung adenocarcinoma and brain metastases; experiment: Clinical case study, EGFR 19del lung adenocarcinoma with brain metastases; format: in vivo, human; settings: one patient
Protocol: Herein, we present details of a clinical case study. In this case, brain metastases were recorded at the beginning of the study, and almonertinib was administered for several weeks to allow magnetic resonance imaging of the brain to observe the progression of the disease. Written informed consent was obtained from the patient. The work has been carried out in accordance with The Code of Ethics of the World Medical Association (Declaration of Helsinki).

[3] = system: PC9-LUC brain metastatic tumor; experiment: Mouse brain metastasis xenograft (intracranial PC9-LUC); format: in vivo, BALB/c nude mice; settings: for growth of intracranial tumors (bioluminescence) / body weight of mice: 10 and 25 mg/kg once daily
[4] = biological target: T1, BCRP (Homo sapiens, UniProt Q9UNQ0); experiment: Bidirectional transport across BCRP-MDCK monolayers; format: in vitro ADME; settings: for BCRP transporter substrate assessment: criterion ER >2, BCRP-MDCK vs MDCK
T1 construct: expressed in transfected cells; host or cells: MDCK (canine kidney) cells transduced with lentivirus from pLVX-CMV-BCRP
T1 sequence (Q9UNQ0 1-655): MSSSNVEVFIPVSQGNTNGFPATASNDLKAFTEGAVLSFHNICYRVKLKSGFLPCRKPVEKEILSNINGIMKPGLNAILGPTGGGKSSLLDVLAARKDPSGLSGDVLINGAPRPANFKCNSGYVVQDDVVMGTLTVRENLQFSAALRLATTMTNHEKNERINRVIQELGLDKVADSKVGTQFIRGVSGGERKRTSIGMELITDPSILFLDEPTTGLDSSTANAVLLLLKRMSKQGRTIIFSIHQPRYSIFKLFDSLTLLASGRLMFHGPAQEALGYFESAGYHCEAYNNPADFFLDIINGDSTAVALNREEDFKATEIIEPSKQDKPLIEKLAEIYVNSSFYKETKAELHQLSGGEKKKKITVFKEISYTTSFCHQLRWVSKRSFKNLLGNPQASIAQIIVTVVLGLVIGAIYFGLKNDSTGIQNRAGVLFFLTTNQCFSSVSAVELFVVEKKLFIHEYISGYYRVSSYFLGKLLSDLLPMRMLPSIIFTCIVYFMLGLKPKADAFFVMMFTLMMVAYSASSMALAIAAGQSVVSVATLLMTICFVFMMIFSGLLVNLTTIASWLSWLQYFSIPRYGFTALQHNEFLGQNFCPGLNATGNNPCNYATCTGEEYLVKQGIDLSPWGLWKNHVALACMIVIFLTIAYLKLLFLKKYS
Protocol: (§1) To establish an MDCK transgenic cell line that can stably express human ABCB1 and BCRP and to identify whether it is suitable for drug delivery experiments, lentivirus shuttle plasmids pLVX-CMV-ABCB1 and pLVX-CMV-BCRP and their auxiliary packaging plasmids PSPAX2 and PMD2G, were extracted with high purity and free of endotoxin, respectively. 293T cells were transfected with Lipofectamine™ 3000 transfection reagent, and the medium was changed 6 h after transfection. After culturing for 24 and 48 h, the cell supernatants, rich in lentivirus particles, were collected and concentrated by ultracentrifugation. Before lentivirus transfection for 18–24 h, adherent MDCK cells were spread on 24-well plates at a density of 1 × 10^5/well. The number of cells transfected with lentivirus was approximately 2 × 10^5/well. The next day, the original medium was replaced with 2 ml of fresh medium containing 6 μg/ml polybrene, and then an appropriate amount of virus suspension; the plates were incubated at 37°C. After 4 h, 2 ml of fresh medium was added to dilute polybrene. The cells were cultured for another 24 h, and the medium containing virus was replaced with fresh medium. After 3–4 days of transfection, puromycin was added to screen the cell lines stably expressing ABCB1 and BCRP.
(§2) MDCK, ABCB1-MDCK, and BCRP-MDCK cells were inoculated in Tmur75 culture bottles with high-glucose DMEM. The cells were counted using a cell counter, the cell density was adjusted to 2.0 × 10^5 cells/ml, and the cells were inoculated in 12-well transwell plates [1.13 cm^2 insert area, 0.4 µm pore size (Corning Life Sciences, New York, NY, United States)]. Thereafter, 0.5 ml of cell suspension was added to the villous surface of each hole (AP side) and 1.5 ml of blank culture medium was added to the basal surface (BL side). After 24 h of culture in the incubator, the fresh culture medium was changed on both AP and BL sides, and the medium was changed every day for 3–5 days. In this experiment, transmembrane resistance was used to evaluate the compactness and integrity of the cell model. When the transmembrane resistance (TEER) is greater than 300 Ω cm^2, the cell monolayer is considered dense and intact. The higher the TEER value, the tighter the monolayer connection. The TEER of monolayer cells was calculated using the following formula: TEER = (R - Rb) × A; where, R is the resistance of the well inoculated with cells, Rb is the blank well without cell inoculation, and A is the membrane area of the polycarbonate membrane.
(§3) Before the transport experiment, the cell monolayer was washed with blank HBSS solution at 37°C three times, and then placed in a CO2 incubator and balanced with HBSS solution for 30 min at 37°C. The transport of the AP→BL side: 0.5 ml of the test solution was added to the AP side as the supply pool, whereas 1.5 ml of blank HBSS solution was added to the BL side as the receiving pool. Before sampling, 0.1 ml of the sample was collected from the BL side in the centrifuge tube, and after sampling, 0.1 ml of blank HBSS, transport sample, was added to the BL side to precipitate protein with methanol, and used for liquid chromatography-tandem mass spectrometry (LC-MS) detection. The transport of the BL→AP side: 1.5 ml of the test solution was added to the BL side as the supply pool, whereas 0.5 ml of blank HBSS solution was added to the AP side as the receiving pool. First, 0.1 ml of the sample was collected on the AP side in the centrifuge tube, and then 0.1 ml of HBSS was added to the AP side after sampling. A transport sample was added to the AP side to precipitate the protein with methanol and used for LC-MS detection.
(§4) The protein was precipitated with methanol in 0.1 ml of blank HBSS, transport sample, and used for LC-MS detection. Drug absorption was determined by LC-MS/MS.

[5] = system: PC9-LUC spinal cord metastases; experiment: Mouse spinal cord metastasis model (PC9-LUC); format: in vivo, nude mice; settings: for biofluorescence signal of intracranial and spinal cord tumors: vs control
[6] = Bidirectional transport across MDCK monolayers; format: in vitro ADME, canine; settings: dog, read-out: efflux ratio (ER)
Protocol: as §2, §3, §4

[7] = biological target: T2, ABCB1 (Homo sapiens, UniProt P08183); experiment: Bidirectional transport across ABCB1-MDCK monolayers; format: in vitro ADME; settings: for ABCB1 transporter substrate assessment: criterion ER >2, ABCB1-MDCK vs MDCK
T2 construct: expressed in transfected cells; host or cells: MDCK (canine kidney) cells transduced with lentivirus from pLVX-CMV-ABCB1
T2 sequence (P08183 whole entry): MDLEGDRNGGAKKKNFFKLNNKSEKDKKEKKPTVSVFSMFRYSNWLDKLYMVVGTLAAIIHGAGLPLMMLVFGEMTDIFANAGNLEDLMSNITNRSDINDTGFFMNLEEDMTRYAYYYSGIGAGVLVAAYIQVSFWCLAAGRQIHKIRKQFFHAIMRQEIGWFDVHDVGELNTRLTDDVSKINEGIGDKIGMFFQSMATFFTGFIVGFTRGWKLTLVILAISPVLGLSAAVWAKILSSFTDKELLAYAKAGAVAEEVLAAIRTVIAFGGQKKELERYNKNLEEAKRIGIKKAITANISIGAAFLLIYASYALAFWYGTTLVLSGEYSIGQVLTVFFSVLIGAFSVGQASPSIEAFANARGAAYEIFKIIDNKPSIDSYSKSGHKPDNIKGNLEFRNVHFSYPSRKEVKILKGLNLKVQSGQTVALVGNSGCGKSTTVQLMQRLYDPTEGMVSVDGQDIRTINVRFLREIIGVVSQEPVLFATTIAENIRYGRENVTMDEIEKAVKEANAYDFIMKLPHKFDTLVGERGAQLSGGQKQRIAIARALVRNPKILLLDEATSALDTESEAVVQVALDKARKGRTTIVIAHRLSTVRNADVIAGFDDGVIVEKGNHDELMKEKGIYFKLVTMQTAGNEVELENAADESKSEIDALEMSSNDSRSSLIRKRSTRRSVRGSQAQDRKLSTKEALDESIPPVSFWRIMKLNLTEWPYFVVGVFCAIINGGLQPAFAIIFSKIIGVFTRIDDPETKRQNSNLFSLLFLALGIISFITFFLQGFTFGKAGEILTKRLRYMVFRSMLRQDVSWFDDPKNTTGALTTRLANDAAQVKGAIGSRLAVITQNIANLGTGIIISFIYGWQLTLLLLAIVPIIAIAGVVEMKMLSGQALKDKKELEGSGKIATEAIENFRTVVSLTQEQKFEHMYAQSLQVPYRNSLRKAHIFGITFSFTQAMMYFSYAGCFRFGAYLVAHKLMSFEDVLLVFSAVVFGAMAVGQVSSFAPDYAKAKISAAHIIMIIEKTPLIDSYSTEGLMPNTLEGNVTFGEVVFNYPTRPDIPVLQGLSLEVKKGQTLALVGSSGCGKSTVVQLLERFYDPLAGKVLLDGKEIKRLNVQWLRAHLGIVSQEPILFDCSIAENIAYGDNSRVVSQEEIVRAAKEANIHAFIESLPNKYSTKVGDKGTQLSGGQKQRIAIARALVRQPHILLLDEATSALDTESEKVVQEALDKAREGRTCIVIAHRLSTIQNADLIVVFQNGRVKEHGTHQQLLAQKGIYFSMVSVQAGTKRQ
Protocol: as §1, §2, §3, §4

[8] = biological target: EGFR T790M mutant protein (Homo sapiens, UniProt P00533, T790M); experiment: biochemical
EGFR T790M mutant protein, sequence (P00533 25-1210 T790M): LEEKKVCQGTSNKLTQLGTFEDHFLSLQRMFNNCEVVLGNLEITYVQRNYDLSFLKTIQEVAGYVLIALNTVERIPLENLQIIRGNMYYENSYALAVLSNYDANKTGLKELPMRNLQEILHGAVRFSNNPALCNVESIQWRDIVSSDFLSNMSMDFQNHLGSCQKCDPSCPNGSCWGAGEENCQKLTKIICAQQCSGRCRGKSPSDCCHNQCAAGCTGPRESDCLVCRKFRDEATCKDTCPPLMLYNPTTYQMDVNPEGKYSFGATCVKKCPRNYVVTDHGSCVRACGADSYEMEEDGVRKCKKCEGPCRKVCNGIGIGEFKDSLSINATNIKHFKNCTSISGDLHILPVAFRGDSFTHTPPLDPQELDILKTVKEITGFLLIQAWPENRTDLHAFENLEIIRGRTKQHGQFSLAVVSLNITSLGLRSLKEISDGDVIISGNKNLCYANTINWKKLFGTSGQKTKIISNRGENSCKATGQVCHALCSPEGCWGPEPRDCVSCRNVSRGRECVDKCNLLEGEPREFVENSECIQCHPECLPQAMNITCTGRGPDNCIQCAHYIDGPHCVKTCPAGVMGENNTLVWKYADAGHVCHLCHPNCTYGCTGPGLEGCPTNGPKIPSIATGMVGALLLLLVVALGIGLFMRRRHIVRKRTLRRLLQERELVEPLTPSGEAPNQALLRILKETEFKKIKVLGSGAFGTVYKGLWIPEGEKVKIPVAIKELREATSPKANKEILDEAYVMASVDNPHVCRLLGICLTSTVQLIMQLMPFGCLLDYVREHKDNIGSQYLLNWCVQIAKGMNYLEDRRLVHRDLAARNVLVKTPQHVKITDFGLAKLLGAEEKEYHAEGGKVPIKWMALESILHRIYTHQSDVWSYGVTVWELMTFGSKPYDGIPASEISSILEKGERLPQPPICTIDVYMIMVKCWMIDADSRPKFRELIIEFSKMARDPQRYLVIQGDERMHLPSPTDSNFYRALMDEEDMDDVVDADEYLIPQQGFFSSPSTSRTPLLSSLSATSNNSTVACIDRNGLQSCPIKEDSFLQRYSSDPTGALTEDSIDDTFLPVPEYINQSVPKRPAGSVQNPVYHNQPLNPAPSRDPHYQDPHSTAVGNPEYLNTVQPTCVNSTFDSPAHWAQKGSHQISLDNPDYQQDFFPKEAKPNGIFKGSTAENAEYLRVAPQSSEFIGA

[9] = system: EGFR-mutated NSCLC brain metastases; parameters: method as in Liu et al., 2020; settings: patients, ref Liu et al., 2020; cited from earlier work
[10] = parameters: method as in Mok et al., 2017; settings: metabolite of osimertinib; ref Mok et al., 2017; cited from earlier work
[11] = parameters: method as in Mok et al., 2017; settings: AURA3; ref Mok et al., 2017; cited from earlier work
[12] = mouse, in vivo, po, 25 mg/kg
[13] = system: MDCK cell monolayers; experiment: Bidirectional transport across MDCK monolayers; format: in vitro ADME, canine
Protocol: as §2, §3, §4

[14] = female, BALB/c nude, mouse, brain, po, 25 mg/kg
[15] = female, BALB/c nude, mouse, plasma, po, 25 mg/kg
[16] = brain metastasis model, 25 mg/kg once daily

SMILES: C=CC(=O)Nc1cc(Nc2nccc(-c3cn(C4CC4)c4ccccc34)n2)c(OC)cc1N(C)CCN(C)C [almonertinib]
detectability in plasma and brain tissue ([1]; 24 h after 25 mg/kg oral): could still be detected | BBB penetration ([1]; PC9-LUC BM xenograft mice, almonertinib 25 mg/kg oral): excellent BBB penetration | tmax ([1]; brain, almonertinib 25 mg/kg oral): 2 h | AUC(0-t) [1, 14]: 30.6 µM·h | Cmax [1, 14]: 5.36 µM | MRT last [1, 14]: 6.19 h | Kp ([1]; female, BALB/c nude, mouse, brain/plasma, po, 25 mg/kg): 1.82 | AUC(0-t) [1, 15]: 16.9 µM·h | Cmax [1, 15]: 6.41 µM | MRT last [1, 15]: 5.42 h | tmax ([1]; female, BALB/c nude, mouse, plasma, po, 25 mg/kg, tmax, almonertinib 25 mg/kg oral): 0.5 h | intracranial tumor response ([2]; 110 mg po qd first-line, after 8 weeks): partially responded | abnormalities during treatment ([2]; 110 mg po qd): no other abnormalities | neurological function (sticky dot test, vertical test) ([3]; 25 mg/kg, vs control group): significant improvement in neurological function | growth of intracranial tumors (bioluminescence) [3]: effectively inhibited the growth of intracranial tumors | number of proliferative cells (Ki-67, histological analysis of brain tissue) ([3]; brain metastasis model): significantly decreased | body weight of mice ([3]; brain metastasis model): decreased after administration | overall survival time of mice ([3]; brain metastasis model, 10 and 25 mg/kg, 60 days): longer than that of mice in the osimertinib group | BCRP transporter substrate assessment [4]: ABCB1 and BCRP transporter substrates | efflux ratio at 1 μM ([4]; human, BCRP-MDCK, 1 μM, read-out: efflux ratio (ER)): 4.62 | efflux ratio at 10 μM ([4]; human, BCRP-MDCK, 10 μM, read-out: efflux ratio (ER)): 2.51 | efflux ratio at 20 μM ([4]; human, BCRP-MDCK, 20 μM, read-out: efflux ratio (ER)): 1.53 | tumor growth / regression ([5]; 5 mg/kg, spinal cord metastatic mice): can inhibit tumor growth but cannot cause tumor regression | biofluorescence signal of intracranial and spinal cord tumors ([5]; high-dose group (25 mg/kg Qd)): significantly reduced | proliferation of tumor cells (H&E and Ki-67 staining of spinal cord) ([5]; high-dose group (25 mg/kg)): significant inhibition in the proliferation of tumor cells | biofluorescence signal of intracranial and spinal cord tumors ([5]; low-dose group (5 mg/kg Qd)): did not change significantly | survival time ([5]; spinal cord metastasis model, vs osimertinib-administered group): longer survival time | efflux ratio at 1 μM ([6]; 1 μM): 1.1 | efflux ratio at 10 μM ([6]; 10 μM): 1.42 | efflux ratio at 20 μM ([6]; 20 μM): 1.02 | ABCB1 transporter substrate assessment [7]: ABCB1 and BCRP transporter substrates | efflux ratio at 1 μM ([7]; human, MDCK-MDR1, ABCB1-MDCK, 1 μM, read-out: efflux ratio (ER)): 5.2 | efflux ratio at 10 μM ([7]; human, MDCK-MDR1, ABCB1-MDCK, 10 μM, read-out: efflux ratio (ER)): 2.75 | efflux ratio at 20 μM ([7]; human, MDCK-MDR1, ABCB1-MDCK, 20 μM, read-out: efflux ratio (ER)): 1.84 | Kd [8]: 11.1 µM

SMILES: C#Cc1cccc(Nc2ncnc3cc4c(cc23)OCCOCCOCCO4)c1 [icotinib]
median intracranial progression free survival (PFS) [9]: 8.4 months

SMILES: C=CC(=O)Nc1cc(Nc2nccc(-c3c[nH]c4ccccc34)n2)c(OC)cc1N(C)CCN(C)C [AZ5104]
concentration of active metabolite in the human body [10]: ~10%

skin of mice [3, 16]: appeared to be keratinized | weight loss [3, 16]: more obvious
SMILES: C=CC(=O)Nc1cc(Nc2nccc(-c3cn(C)c4ccccc34)n2)c(OC)cc1N(C)CCN(C)C [osimertinib]
growth of intracranial tumors (bioluminescence) [3]: effectively inhibited the growth of intracranial tumors | body weight of mice ([3]; brain metastasis model): decreased after administration | biofluorescence signal of intracranial and spinal cord tumors ([5]; high-dose group (25 mg/kg Qd)): significantly reduced | biofluorescence signal of intracranial and spinal cord tumors ([5]; low-dose group (5 mg/kg Qd)): did not change significantly | grade 1 and 2 diarrhea, patients affected [11]: 41% | grade 1 and 2 rashes, patients affected [11]: 34%

SMILES: C=CC(=O)Nc1cc(Nc2nccc(-c3cn(C4CC4)c4ccccc34)n2)c(OC)cc1N(C)CCNC [HAS-719]
efflux ratio (ER) ([4]; BCRP-MDCK, 1 μM): 11.59 | efflux ratio (ER) ([4]; BCRP-MDCK, 10 μM): 5.07 | efflux ratio (ER) ([4]; BCRP-MDCK, 20 μM): 2.49 | BCRP transporter substrate assessment [4]: ABCB1 and BCRP transporter substrates | Tissue/plasma AUC ratio [12]: 0.21 | efflux ratio (ER) ([13]; 1 μM): 2.81 | efflux ratio (ER) ([13]; 10 μM): 1.61 | efflux ratio (ER) ([13]; 20 μM): 1.62 | efflux ratio (ER) ([7]; ABCB1-MDCK, 1 μM): 29.83 | efflux ratio (ER) ([7]; ABCB1-MDCK, 10 μM): 12.26 | efflux ratio (ER) ([7]; ABCB1-MDCK, 20 μM): 5.5 | ABCB1 transporter substrate assessment [7]: ABCB1 and BCRP transporter substrates
